The values below come from PubChem BioAssay AID256 (DTP/NCI, 2004).

Several values for one entry are separate records, joined by “and”; a condition that tells them apart may be missing. Equal entries are not always repeated. Inconclusive results and toxic doses are left out.

This assay relates to CD2F1 mice, L1210 leukemia ip, survival T/C. In words: NCI In Vivo Anticancer Drug Screen. Data for tumor model L1210 Leukemia (intraperitoneal) in CD2F1 (CDF1) mice. Conditions: higher = longer survival. The method, boiled down: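 Tumor-bearing mice (transplanted tumor) were split into treated and vehicle control groups, and the measured endpoint of each treated group was divided by that of its vehicle controls.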

Where [1] appears, read: endpoint: mean survival time, dose: 100.0 mg/kg/injection, schedule: Q01DX009 (ip), vehicle: saline.
[2] abbreviates: endpoint: mean survival time, dose: 50.0 mg/kg/injection, schedule: Q01DX009 (ip), vehicle: saline with Tween-80.
Setting [3] is: endpoint: mean survival time, dose: 100.0 mg/kg/injection, schedule: Q04DX003 (ip), vehicle: saline with Tween-80.
[4] abbreviates: endpoint: mean survival time, dose: 100.0 mg/kg/injection, schedule: Q04DX003 (ip), vehicle: other.
The mark [5] stands for this setting: endpoint: mean survival time, dose: 200.0 mg/kg/injection, schedule: Q04DX003 (ip), vehicle: other.
Setting [6] is: endpoint: mean survival time, dose: 75.0 mg/kg/injection, schedule: Q01DX001 (ip), vehicle: saline.
[7] abbreviates: endpoint: mean survival time, dose: 100.0 mg/kg/injection, schedule: Q01DX009 (ip), vehicle: saline with Tween-80.
[8] abbreviates: endpoint: mean survival time, dose: 200.0 mg/kg/injection, schedule: Q01DX009 (ip), vehicle: saline with Tween-80.
[9] abbreviates: endpoint: mean survival time, dose: 400.0 mg/kg/injection, schedule: Q01DX009 (ip), vehicle: saline with Tween-80.
[10] abbreviates: endpoint: mean survival time, dose: 200.0 mg/kg/injection, schedule: Q04DX003 (ip), vehicle: saline with Tween-80.
The mark [11] stands for this setting: endpoint: mean survival time, dose: 400.0 mg/kg/injection, schedule: Q04DX003 (ip), vehicle: saline with Tween-80.

As for `O=[N+]([O-])c1cc(S(=O)(=O)O)cc([N+](=O)[O-])c1Cl`, the T/C was 103 % of control (endpoint: mean survival time, dose: 25.0 mg/kg/injection, schedule: Q01DX009 (ip), vehicle: saline); 96 % of control (endpoint: mean survival time, dose: 50.0 mg/kg/injection, schedule: Q01DX009 (ip), vehicle: saline); 98 % of control and 103 % of control under setting [1].
As for `O=c1oc2ccccc2c(O)c1-c1cccc2ccccc12`, the T/C by setting is: (endpoint: mean survival time, dose: 12.5 mg/kg/injection, schedule: Q01DX009 (ip), vehicle: saline with Tween-80) 91 % of control; (endpoint: mean survival time, dose: 25.0 mg/kg/injection, schedule: Q01DX009 (ip), vehicle: saline with Tween-80) 103 % of control; under setting [2], 100 % of control.
With `[O]=[Sb]([c]1ccccc1)([c]1ccccc1)[c]1ccccc1`, the T/C under setting [3] was 101 % of control.
For the molecule `CN(C)C(=O)Sc1ccc(N(C)C)cc1`, the T/C is, setting by setting: (endpoint: mean survival time, dose: 200.0 mg/kg/injection, schedule: Q04DX002 (ip), vehicle: saline with Tween-80) 107 % of control; (endpoint: mean survival time, dose: 400.0 mg/kg/injection, schedule: Q04DX002 (ip), vehicle: saline with Tween-80) 107 % of control.
Consider `CC(=NC(c1ccccc1)c1ccccc1)N(C)C`, for which the T/C is, setting by setting: (endpoint: mean survival time, dose: 25.0 mg/kg/injection, schedule: Q04DX002 (ip), vehicle: saline with Tween-80) 102 % of control; (endpoint: mean survival time, dose: 50.0 mg/kg/injection, schedule: Q04DX002 (ip), vehicle: saline with Tween-80) 98 % of control; (endpoint: mean survival time, dose: 100.0 mg/kg/injection, schedule: Q04DX002 (ip), vehicle: saline with Tween-80) 102 % of control.
Regarding `O=C1OCCC1C(=O)C(O)(C(F)(F)F)C(F)(F)F` (centres undefined), the T/C reads like this: under setting [4], 113 % of control; under setting [5], 87 % of control; (endpoint: mean survival time, dose: 400.0 mg/kg/injection, schedule: Q04DX003 (ip), vehicle: other) 107 % of control.
As to `CC(=O)Nc1nc(C)c(S(=O)(=O)O)s1`, the T/C by setting is: under setting [6], 101 % of control; (endpoint: mean survival time, dose: 150.0 mg/kg/injection, schedule: Q01DX001 (ip), vehicle: saline) 93 % of control; (endpoint: mean survival time, dose: 300.0 mg/kg/injection, schedule: Q01DX001 (ip), vehicle: saline) 90 % of control.
On to `O=C(C(=O)c1ccccc1)c1ccccc1`, for which the T/C runs as follows: under setting [1], 100 % of control; (endpoint: mean survival time, dose: 200.0 mg/kg/injection, schedule: Q01DX009 (ip), vehicle: saline) 101 % of control; (endpoint: mean survival time, dose: 400.0 mg/kg/injection, schedule: Q01DX009 (ip), vehicle: saline) 108 % of control.
With `C1CC[N-]CC1.C1CC[N-]CC1.N#C[S-].N#C[S-].[Cu]`, the T/C (endpoint: mean survival time, dose: 2.5 mg/kg/injection, schedule: Q04DX003 (ip), vehicle: saline with Tween-80) was 98 % of control and the T/C (endpoint: mean survival time, dose: 5.0 mg/kg/injection, schedule: Q04DX003 (ip), vehicle: saline with Tween-80) is 92 % of control.
As to `CN(C)Cc1c(-c2ccccc2)c(CN(C)C)n2ccccc12`, the T/C under setting [6] was 97 % of control.
In the case of `Cc1cc(CBr)c(O)c(CBr)c1`, the T/C by setting is: (endpoint: mean survival time, dose: 25.0 mg/kg/injection, schedule: Q01DX009 (ip), vehicle: other) 101 % of control; (endpoint: mean survival time, dose: 50.0 mg/kg/injection, schedule: Q01DX009 (ip), vehicle: other) 93 % of control; (endpoint: mean survival time, dose: 100.0 mg/kg/injection, schedule: Q01DX009 (ip), vehicle: other) 104 % of control.
With `N#Cc1ccc2cn[nH]c2c1`, the T/C reads like this: under setting [7], 98 % of control; under setting [8], 96 % of control; under setting [9], 92 % of control.
With `O=S(=O)(F)c1ccc2nc(-c3cccc(Sc4ccccc4)c3)cc(Cl)c2c1`, the T/C under setting [7] was 97 % of control; the T/C under setting [3] was 97 % of control; the T/C under setting [8] is 93 % of control; the T/C under setting [10] is 90 % of control; the T/C under setting [9] was 97 % of control; the T/C under setting [11] was 96 % of control.
`COC(=O)[C@H]1[C@H]2C[C@@H]3c4[nH]c5cc(OC)ccc5c4CCN3C[C@H]2C[C@@H](OC(=O)c2cc(OC)c(OC)c(OC)c2)[C@@H]1OC`: the T/C is, setting by setting: (endpoint: mean survival time, dose: 3.0 mg/kg/injection, schedule: Q01DX009 (ip), vehicle: saline with Tween-80) 95 % of control; (endpoint: mean survival time, dose: 6.0 mg/kg/injection, schedule: Q01DX009 (ip), vehicle: saline with Tween-80) 94 % of control; (endpoint: mean survival time, dose: 12.5 mg/kg/injection, schedule: Q04DX003 (ip), vehicle: saline with Tween-80) 90 % of control; (endpoint: mean survival time, dose: 50.0 mg/kg/injection, schedule: Q04DX003 (ip), vehicle: saline with Tween-80) 89 % of control.
Take `N#C/C(=C(/C#N)c1ccccc1)c1ccccc1`: the T/C by setting is: under setting [3], 96 % of control; under setting [10], 94 % of control; under setting [11], 88 % of control.
`CC1=CCC2C(=O)NC(=O)C2C1` (centres undefined): the T/C reads like this: under setting [2], 96 % of control; under setting [7], 104 % of control; under setting [8], 104 % of control.
In the case of `Clc1ccc([I+]c2ccc(Cl)cc2)cc1`, the T/C is, setting by setting: (endpoint: median survival time, dose: 25.0 mg/kg/injection, schedule: Q04DX002 (ip), vehicle: saline with Tween-80) 102 % of control; (endpoint: median survival time, dose: 50.0 mg/kg/injection, schedule: Q04DX002 (ip), vehicle: saline with Tween-80) 98 % of control; (endpoint: median survival time, dose: 100.0 mg/kg/injection, schedule: Q04DX002 (ip), vehicle: saline with Tween-80) 91 % of control.
Turning to `O=C(/C(Br)=C/c1ccccc1)c1ccccc1`, the T/C is 103 % of control under setting [4] and 105 % of control under setting [5].
For `O=C(C[n+]1cccc(C(=O)NCc2ccccc2)c1)Nc1ccccc1`, where the note is “endpoint: mean survival time, dose: 100.0 mg/kg/injection, schedule: Q04DX003 (ip), vehicle: saline”, the T/C is 96 % of control.
`CCOC(=O)C(Cc1ccccc1)P(=O)(OCC)OCC` (centres undefined): the T/C reads like this: (endpoint: mean survival time, dose: 100.0 mg/kg/injection, schedule: Q01DX001 (ip), vehicle: saline) 108 % of control; (endpoint: mean survival time, dose: 200.0 mg/kg/injection, schedule: Q01DX001 (ip), vehicle: saline) 108 % of control; (endpoint: mean survival time, dose: 400.0 mg/kg/injection, schedule: Q01DX001 (ip), vehicle: saline) 100 % of control.
Take `Nc1ccc(NC(=S)Nc2ccc(N)cc2)cc1`: the T/C is, setting by setting: (endpoint: mean survival time, dose: 25.0 mg/kg/injection, schedule: Q04DX003 (ip), vehicle: Klucel (hydroxypropylcellulose) (HPC)) 104 % of control; (endpoint: mean survival time, dose: 50.0 mg/kg/injection, schedule: Q04DX003 (ip), vehicle: Klucel (hydroxypropylcellulose) (HPC)) 106 % of control; (endpoint: mean survival time, dose: 100.0 mg/kg/injection, schedule: Q04DX003 (ip), vehicle: Klucel (hydroxypropylcellulose) (HPC)) 98 % of control.
As to `COc1cc2c(cc1OC)C(Cc1ccc3cc(OC)c(OC)cc3c1)=NCC2`, the T/C was 93 % of control under setting [7]; 87 % of control under setting [3]; 101 % of control under setting [8]; 89 % of control under setting [10]; 110 % of control under setting [9]; 101 % of control under setting [11].
For `CC12CCC(/C(=C/NNc3ccc([N+](=O)[O-])cc3[N+](=O)[O-])C1=O)C2(C)C` (centres undefined), the T/C by setting is: under setting [3], 93 % of control; under setting [10], 90 % of control; under setting [11], 96 % of control.
As for `O=C(CNC(=O)Nc1cccc(C(F)(F)F)c1)N/N=C/c1cc(Br)ccc1O`, the T/C runs as follows: under setting [2], 96 % of control; under setting [7], 88 % of control.
